Results: US9540640B2, “Compositions and methods for inhibiting hypdxia induced damage” (Health Research, Inc., priority 2012, dated 2017)

The compounds below were run on HK-2 cells (assay: Individual shRNA screening: survival of transduced HK-2 cells under hypoxia (Protocol 2)). Conditions: viable shRNA-transduced HK-2 cells after hypoxia (0.2% oxygen 48 hours, low glucose DMEM) vs control HK-2 cells; 2-6 independent experiments; methylene blue.
Type: cell-based, human
Source text: shRNA of the invention can be expressed from any suitable vector such as a recombinant viral vector either as two separate, complementary RNA molecules, or as a single RNA molecule with two complementary regions. In this regard, any viral vector capable of accepting the coding sequences for the shRNA molecule(s) to be expressed can be used. Examples of suitable vectors include but are not limited to vectors derived from adenovirus, adeno-associated virus, retroviruses (e.g, lentiviruses, Rhabdoviruses, murine leukemia virus), herpes virus, and the like. A preferred virus is a lentivirus. The tropism of the viral vectors can also be modified by pseudotyping the vectors with envelope proteins or other surface antigens from other viruses. As an alternative to expression of shRNA in cells from a recombinant vector, chemically stabilized shRNA or siRNAs may also be used administered as the agent in the method of the invention. Vectors for expressing shRNA which in turn produces siRNA once introduced into a cell are commercially available. Further, shRNAs which facilitate produce of siRNA targeted to virtually every known human gene are also known and are commercially available. In embodiments specific shRNAs are those which comprise polynucleotide sequences presented in Table 2, wherein those sequences are targeted to the genes as indicated. In particular, Table 2 provides the sequence of segments of shRNAs that target the HRGs of the present disclosure. […] “RPCI” under source designates the “shRNA Resource of Roswell Park Cancer Institute” which distributes shRNAs from commercial vendors. The catalog # column signifies a reference under which each of the shRNAs are made available to the public. The SEQ ID # column refers to the sequence listing that forms a part of this disclosure. The polynucleotide sequences provided in Table 2 are cDNA sequences that recognize the target gene mRNA via shRNA. It will be recognized by those skilled in the art that the shRNAs used in the Examples presented herein have the identical sequences as listed in Table 2, except for substitution of each thymine with uracil. It will be also recognize that each of the shRNAs as used in practice has additional sequences that are typical of shRNA constructs, but that the sequences listed in Table 2 are the ones that are antisense to the mRNA of the indicated HRGs.
Protocol 2: Individual shRNA screening.
Cell Preparation: Lentiviral vectors containing various shRNAs of interest were obtained from commercial sources, and packaged in 293T cells. HK-2 cells were then transduced with these expression constructs and selected for the presence of a vector-encoded antibiotic resistance marker.
Hypoxia Protocol: Day 0: HK-2 cells containing individual shRNAs were seeded in triplicate on two 96-well plates, 3×10^4 cells/well. Negative controls included uninfected cells or cells infected with a corresponding empty vector. Day 1: Keratinocyte medium was removed from the plates and fresh DMEM containing low glucose was added. One of the plates was then transported to a chamber that contained 0.2% oxygen for 48 hours, while the other remained at normoxia for the same period of time. Day 3: The cells were rescued from hypoxia and the plates were immediate fixed and stained with methylene blue to assess survival. Results were then graphed as the percent of stain of the corresponding cells incubated in normoxic conditions minus the background (non-specific dye absorption by empty wells).
In the case of “11 (TCTTGCCAAGGTTTATGGC; expressed or natural sequence) [compound 11]”, the “geometric mean of fold increase in cell number” value (“geometric mean of fold increase” below) is reported as 8 fold.
For “12 (ATCTCTTTGGACTTGAAGC; expressed or natural sequence) [compound 12]”, the “geometric mean of fold increase” value was 9 fold.
In the case of “13 (TGATGTCTGGTGTAGTAGG; expressed or natural sequence) [compound 13]”, the “geometric mean of fold increase” value is reported as 10 fold.
For “14 (ATCTCCTGAATATTTCAGCAG; expressed or natural sequence) [compound 14]”, the “geometric mean of fold increase” value was 13 fold.
For “15 (ATGACATTGATCTGATCCA; expressed or natural sequence) [compound 15]”, the “geometric mean of fold increase” value was 23 fold.
For “16 (TCTTCAACAGAATCCACTT; expressed or natural sequence) [compound 16]”, the “geometric mean of fold increase” value was 6 fold.
With “17 (AAACGCTAAAGATGAGTCC; expressed or natural sequence) [compound 17]” the “geometric mean of fold increase” value was 7 fold.
“18 (ATTGGTTTGATTTCCTCCC; expressed or natural sequence) [compound 18]” was tested, and the “geometric mean of fold increase” value was 18 fold.
“19 (AACATGTTCATAACCAGGTCG; expressed or natural sequence) [compound 19]” was tested, and the “geometric mean of fold increase” value was 26 fold.
With “20 (TCTTCTAAGCACTGAAGAG; expressed or natural sequence) [compound 20]” the “geometric mean of fold increase” value was 11 fold.
In the case of “21 (TTACTGAACACGATCAGCAGG; expressed or natural sequence) [compound 21]”, the “geometric mean of fold increase” value is reported as 22 fold.
In the case of “22 (TACTGAACACGATCAGCAG; expressed or natural sequence) [compound 22]”, the “geometric mean of fold increase” value is reported as 9 fold.
“23 (ATAAATATCTGTTCCCAAG; expressed or natural sequence) [compound 23]” was tested, and the “geometric mean of fold increase” value was 15 fold.
For “24 (TTCTTGTAAATAATGAGCG; expressed or natural sequence) [compound 24]”, the “geometric mean of fold increase” value was 5 fold.
With “25 (TTCTCATAAATCTTGTTCG; expressed or natural sequence) [compound 25]” the “geometric mean of fold increase” value was 15 fold.
For “26 (TTCCAGTAGAAGTAGTACT; expressed or natural sequence) [compound 26]”, the “geometric mean of fold increase” value was 12 fold.
For “27 (TTGGATCTGTAAAGACGCCAC; expressed or natural sequence) [compound 27]”, the “geometric mean of fold increase” value was 5 fold.

The compounds below were run on HK-2 cells (assay: Combined inhibition of RhoB (shRNA) and TACR1 (L-733,060): HK-2 survival in hypoxia). Conditions: L-733,060 5 μM on HK2-RhoB cells (shRNA to RhoB) vs either one alone; 0.2% oxygen 48 hours; FIG. 9.
Type: cell-based
Method: To obtain the data presented in FIG. 9, HK-2 cells were trasnduced with either a construct expressing an shRNA to RhoB (cell line “HK2-RhoB”) or the corresponding empty vector (cell line “HK2-vector”). The survival of cells in hypoxic condition with or without addition of TACR1 inhibitor was evaluated using the following protocol: Day 0: HK-2 cells were seeded on two 96-well plates, 3×10^4 cells/well. Day 1: Keratinocyte medium was removed from the plates and fresh DMEM containing low glucose. TACR1 inhibitor (L-733,060; 5 μM) was added to half of the wells of either HK2-RhoB or HK2-vector. One hour later one of the plates was transported to a chamber that contained 0.2% oxygen for 48 hours, while the other remained at normoxia for the same period of time. Day 3: The cells were rescued from hypoxia and the plates were immediate fixed and stained with methylene blue to assess survival. Results were then graphed as the percent of stain of the corresponding cells incubated in normoxic conditions minus the background (non-specific dye absorption by empty wells).
For `FC(F)(F)c1cc(CO[C@H]2CCCN[C@H]2c2ccccc2)cc(C(F)(F)F)c1` [L-733,060, (2S,3S)-3-{[3,5-bis(trifluoromethyl)benzyl]oxy}-2-phenylpiperidine], the “protection from hypoxia, combined inhibition of RhoB and TACR1” value was “better protection that inhibition of either one alone”.

The compounds below were run on kidneys (assay: Mouse model of acute renal ischemia, plasma markers of kidney damage). Conditions: i.p. 30 mg/kg or 90 mg/kg 30 minutes before 25 min ischemia of both kidneys, 24 hrs after reperfusion, FIG. 8.
Type: in vivo
Method: In particular, the protective effects of chemically inhibiting TACR1 were examined in a mouse model of acute renal ischemia using the following protocol: i. 30 minutes before the surgery, mice received an i.p. injection of a TACR1 inhibitor (L-733,060) at either 30 mg/kg or 90 mg/kg, or of the respective vehicle (saline). ii. Under general anesthesia with Ketamin/Rompun, the mice were subjected to 25 min of ischemic of both kidneys. Each of the 2 kidneys was exposed through a flank incision. The kidney pedicle was clamped with atraumatic clamps for 25 min. iii. Mice were kept in an incubator at constant temperature 36 C during the 25 min of ischemia. After 25 min of ischemia, clamps were removed and wounds were closed. iv. 24 hrs after reperfusion blood samples were taken and mice were sacrificed. v. The levels of biochemical markers of kidney damage were measured in the plasma of the collected blood. Specifically, creatinine, neutrophil gelatinase-associated lipocalin (NGAL), osteopontin and urea (blood urea nitrogen) were measured.
For `FC(F)(F)c1cc(CO[C@H]2CCCN[C@H]2c2ccccc2)cc(C(F)(F)F)c1` [L-733,060, (2S,3S)-3-{[3,5-bis(trifluoromethyl)benzyl]oxy}-2-phenylpiperidine], the “signs of kidney damage (plasma creatinine, NGAL, osteopontin, urea)” value was “decreases the appearance of signs of kidney damage”.

The compounds below were run on hRPTEC cells (assay: TACR1 inhibitor: survival of hRPTEC cells under hypoxia). Conditions: 0.2% oxygen 48 hours, low glucose DMEM, inhibitor added 1 hour before; methylene blue; FIG. 7.
Type: cell-based
Method: The following protocol was used: Day 0: hRPTEC were seeded on two 96-well plates, 2×10^4 cells/well. Day 1: Keratinocyte medium was removed from the plates and fresh DMEM containing low glucose and the indicated concentration of the TACR1 inhibitor (L-733,060) was added. Each concentration was examined in quadruplicate fashion. The two plates were incubated in the presence of the inhibitor at normal growth conditions for 1 hour, at which time one of the plates was transported to a chamber that contained 0.2% oxygen for 48 hours, while the other remained at normoxia for the same period of time. Day 3: The cells were rescued from hypoxia and the plates were immediate fixed and stained with methylene blue to assess survival. The percent of stain of the corresponding cells incubated in normoxic conditions minus the background (non-specific dye absorption by empty wells) was calculated as a measure of cell resistance to the hypoxia. The results were plotted as a fold increase in resistance over that of cells not treated with L-733,060.
`FC(F)(F)c1cc(CO[C@H]2CCCN[C@H]2c2ccccc2)cc(C(F)(F)F)c1` [L-733,060, (2S,3S)-3-{[3,5-bis(trifluoromethyl)benzyl]oxy}-2-phenylpiperidine] was tested, and the “survival of hRPTEC cells under hypoxia” value was “significantly increases survival”.

What follows are compounds tested on HKC8 cells (assay: TACR1 inhibitor: protection of HKC8 cells under hypoxia). Conditions: 5 μM, 0.2% oxygen 48 hours, low glucose DMEM; methylene blue; FIG. 11.
Type: cell-based
Method: We also tested the protective activity of a chemical TACR1 inhibitor in HKC8 cells using the following protocol. Day 0: HKC8 cells were seeded in complete keratinocyte medium at a density of 2×10^4 cells per well on two 96-well plates. Day 1: Keratinocyte medium was removed from the plates and fresh DMEM containing low glucose and 5 μM TACR1 inhibitor (L-733,060) was added where indicated. Treated and untreated cells were present on the plates in triplicate. The two plates were incubated in the presence of the inhibitor at normal growth conditions for 1 hour, at which time one of the plates was transported to a chamber that contained 0.2% oxygen for 48 hours, while the other remained at normoxia for the same duration. Day 3: Following exposure to hypoxia, the cells were rescued and the plates were immediately fixed and stained with methylene blue to assess survival. Results were then graphed as the percent of stain of the corresponding cells incubated in normoxic conditions minus the background (non-specific dye absorption by empty wells).
With `FC(F)(F)c1cc(CO[C@H]2CCCN[C@H]2c2ccccc2)cc(C(F)(F)F)c1` [L-733,060, (2S,3S)-3-{[3,5-bis(trifluoromethyl)benzyl]oxy}-2-phenylpiperidine] the “protection against the effects of hypoxia on HKC8 cells” value was “strongly protective”.
